The text below walks through data of ChEMBL document CHEMBL5528012, “Discovery of novel deoxyvasicinone derivatives with benzenesulfonamide substituents as multifunctional agents against Alzheimer's disease” (Eur J Med Chem, 2024).

Calls of active or inactive are those of the source. The rule behind the calls is not given here.

Series [1] is described as follows: Hepatotoxicity in human HepG2 cells assessed as reduction in cell viability at 20 to 100 uM incubated for 24 hrs by MTT assay. The note with it: hepg2, 24 h, dose 20-100 µM. In kind it is toxicity, cell-based. (In general: Tetrazolium dyes change colour on reduction, which living cells bring about.)
Series [2] is described as follows: Hepatotoxicity in mouse AML12 cells assessed as reduction in cell viability at 20 to 100 uM incubated for 24 hrs by MTT assay. In kind it is toxicity, cell-based. The note with it: aml12, 24 h, dose 20-100 µM.
In series [3] the target is T1, Acetylcholinesterase (Electrophorus electricus, UniProt O42275). The series can be described thus: Inhibition of electric eel AChE.
Series [4] is described as follows: Acute toxicity in C57BL mouse assessed as spleen damage upto 2000 mg/kg, po administered as single dose and measured after 2 weeks by hematoxylin and eosin staining based analysis. It is filed as organism-based. The note with it: in vivo, 336 h.
The test system of series [5] is BV-2. The series can be described thus: Anti-neuroinflammatory activity against LPS-induced mouse BV-2 cells assessed as inhibition of NO production pre-incubated for 1 hr followed by LPS addition and measured after 24 hrs by Griess reagent based assay. In kind it is functional, cell-based. Background: The Griess reaction detects nitrite, a stable product of nitric oxide.

In series [6] the test system is PC-12. The series can be described thus: Antioxidant activity in H2O2-induced rat PC12 cells assessed as reduction in intracellular ROS level incubated for 1 hr followed by H2O2 addition and measured after 5 hrs by DCFH-DA staining based laser confocal microscopy. In kind it is functional, cell-based. The note with it: dose 10-20 µM, time 6.0 hrs.
The nature of series [7]: Toxicity in C57BL mouse assessed as change in body weight at 10 to 30 mg/kg, po measured after 7 days. It is filed as organism-based. The note with it: in vivo, 168 h, dose 10-30 mg/kg, time 7 day.
The subject of series [8] is Mus musculus. As to the kind of experiment: Antialzheimer activity in scopolamine-induced C57BL mouse model assessed as decrease in escape latency at 10 to 30 mg/kg, po administered for 7 days followed by scopolamine administration and measured after 4 days by Morris water maze test. In kind it is functional, organism-based. The note with it: dose 10-30 mg/kg, time 11.0 day.

Series [9] concerns the target T1, Acetylcholinesterase. The series can be described thus: Inhibition of electric eel AChE using acetylthiocholine iodide as substrate pre-incubated for 30 mins followed by substrate addition and measured after 5 mins by DTNB reagent based Ellman's method. In general terms: Ellman's reagent forms a yellow product with free thiols.
Series [10] has as its system BV-2. As to the kind of experiment: Cytotoxicity against mouse BV-2 cells assessed as reduction in cell viability at 20 to 50 uM incubated for 24 hrs by MTT assay. In kind it is toxicity, cell-based. The note with it: bv-2, 24 h, dose 20-50 µM.
Series [11] in a line: Acute toxicity in C57BL mouse assessed as kidney damage upto 2000 mg/kg, po administered as single dose and measured after 2 weeks by hematoxylin and eosin staining based analysis. In kind it is organism-based. The note with it: in vivo, 336 h.
For series [12], the system named is Mus musculus. The series can be described thus: Antialzheimer activity in scopolamine-induced C57BL mouse model assessed as effect on swimming speed at 10 to 30 mg/kg, po administered for 7 days followed by scopolamine administration and measured after 4 days by Morris water maze test. The note with it: dose 10-30 mg/kg, time 11.0 day. In kind it is functional, organism-based.

The subject of series [13] is BV-2. As to the kind of experiment: Anti-neuroinflammatory activity against LPS-induced mouse BV-2 cells assessed as inhibition of TNF-alpha production pre-incubated for 1 hr followed by LPS addition and measured after 24 hrs by ELISA. It is filed as functional, cell-based.
Series [14] deals with Mus musculus. As to the kind of experiment: Antialzheimer activity in scopolamine-induced C57BL mouse model assessed as increase in crossing frequency in platform area at 30 mg/kg, po administered for 7 days followed by scopolamine administration and measured after 5 days by Morris water maze test. It is filed as functional, organism-based. The note with it: time 12.0 day.

The nature of series [15]: Metal chelating activity assessed as Cu2+-compound complex formation by measuring red shift in maximum absorption wavelength at 50 uM incubated for 1 hr in presence of CuCl2 by UV-Visible spectrophotometry.
For series [16], the system named is BV-2. As to the kind of experiment: Anti-neuroinflammatory activity against LPS-induced mouse BV-2 cells assessed as inhibition of IL-1beta production pre-incubated for 1 hr followed by LPS addition and measured after 24 hrs by ELISA. In kind it is functional, cell-based.
Series [17] in a line: Acute toxicity in C57BL mouse assessed as lung damage upto 2000 mg/kg, po administered as single dose and measured after 2 weeks by hematoxylin and eosin staining based analysis. In kind it is organism-based. The note with it: in vivo, 336 h.
Series [18] in a line: Acute toxicity in C57BL mouse assessed as liver damage upto 2000 mg/kg, po administered as single dose and measured after 2 weeks by hematoxylin and eosin staining based analysis. The note with it: in vivo, 336 h. It is filed as organism-based.
Series [19] in a line: Metal chelating activity assessed as Zn2+-compound complex formation by measuring blue shift in maximum absorption wavelength at 50 uM incubated for 1 hr in presence of ZnCl2 by UV-Visible spectrophotometry.
Series [20] concerns the target T1, Acetylcholinesterase. The series can be described thus: Inhibition of electric eel AChE assessed as dissociation constant using acetylthiocholine iodide as substrate pre-incubated for 30 mins followed by substrate addition and measured after 5 mins by DTNB reagent based Ellman's method.
In series [21] the test system is Mus musculus. As to the kind of experiment: Antialzheimer activity in scopolamine-induced C57BL mouse model assessed as prevention of blurred borders in cortical cells of hippocampal region at 10 to 30 mg/kg, po administered for 7 days followed by scopolamine administration by hematoxylin and eosin staining based analysis. It is filed as functional, organism-based. The note with it: dose 10-30 mg/kg.

The test system of series [22] is BV-2. The series can be described thus: Anti-neuroinflammatory activity against LPS-induced mouse BV-2 cells assessed as decrease in COX-2 protein expression pre-incubated for 1 hr followed by LPS addition and measured after 24 hrs by Western blotting analysis. It is filed as functional, cell-based. The note with it: dose 1-10 µM.
Series [23] has as its system PC-12. The series can be described thus: Neuroprotective activity against H2O2-induced cell death in rat PC12 cells assessed as increase in survival rate pre-incubated for 3 hrs followed by H2O2 addition and measured after 24 hrs by MTT assay. It is filed as functional, cell-based. The note with it: dose 1-20 µM, time 27.0 hrs.
For the next series, the target named is Cholinesterase (Equus caballus, UniProt P81908). The series can be described thus: Inhibition of equine serum BuChE using S-butyrylthiocholine iodide as substrate pre-incubated for 30 mins followed by substrate addition and measured after 5 mins by DTNB reagent based Ellman's method.
A further series can be described thus: in vitro. The note with it: PAMPA, pH 7.4.
Series [24] in a line: Acute toxicity in C57BL mouse assessed as heart damage upto 2000 mg/kg, po administered as single dose and measured after 2 weeks by hematoxylin and eosin staining based analysis. It is filed as organism-based. The note with it: in vivo, 336 h.
The subject of series [25] is Mus musculus. The series can be described thus: Antialzheimer activity in scopolamine-induced C57BL mouse model assessed as increase in residence time in platform area at 30 mg/kg, po administered for 7 days followed by scopolamine administration and measured after 5 days by Morris water maze test. It is filed as functional, organism-based. The note with it: time 12.0 day.

Series [26] can be described thus: Metal chelating activity assessed as Cu2+-compound complex formation by measuring drop in intensity of absorption curve at 50 uM incubated for 1 hr in presence of CuCl2 by UV-Visible spectrophotometry.
In series [27] the test system is Mus musculus. The series can be described thus: Antialzheimer activity in scopolamine-induced C57BL mouse model assessed as prevention of irregular cellular arrangements in cortical cells of hippocampal region at 10 to 30 mg/kg, po administered for 7 days followed by scopolamine administration by hematoxylin and eosin staining based analysis. It is filed as functional, organism-based. The note with it: dose 10-30 mg/kg.

Series [28] concerns the target Acetylcholinesterase (Electrophorus electricus) (UniProt O42275). As to the kind of experiment: Mixed type inhibition of electric eel AChE using acetylthiocholine iodide as substrate pre-incubated for 30 mins followed by substrate addition and measured after 5 mins by DTNB reagent based Ellman's method. The note with it: dose 0-0.4 µM, time 35.0 min.
Series [29] relates to PC-12. The series can be described thus: Cytotoxicity against rat PC12 cells assessed as reduction in cell viability at 20 to 50 uM incubated for 24 hrs by MTT assay. In kind it is toxicity, cell-based. The note with it: pc-12, 24 h, dose 20-50 µM.
Series [30] deals with BV-2. As to the kind of experiment: Anti-neuroinflammatory activity against LPS-induced mouse BV-2 cells assessed as decrease in iNOS protein expression pre-incubated for 1 hr followed by LPS addition and measured after 24 hrs by Western blotting analysis. It is filed as functional, cell-based. The note with it: dose 1-10 µM, time 25.0 hrs.

T1 sequence (O42275 whole entry): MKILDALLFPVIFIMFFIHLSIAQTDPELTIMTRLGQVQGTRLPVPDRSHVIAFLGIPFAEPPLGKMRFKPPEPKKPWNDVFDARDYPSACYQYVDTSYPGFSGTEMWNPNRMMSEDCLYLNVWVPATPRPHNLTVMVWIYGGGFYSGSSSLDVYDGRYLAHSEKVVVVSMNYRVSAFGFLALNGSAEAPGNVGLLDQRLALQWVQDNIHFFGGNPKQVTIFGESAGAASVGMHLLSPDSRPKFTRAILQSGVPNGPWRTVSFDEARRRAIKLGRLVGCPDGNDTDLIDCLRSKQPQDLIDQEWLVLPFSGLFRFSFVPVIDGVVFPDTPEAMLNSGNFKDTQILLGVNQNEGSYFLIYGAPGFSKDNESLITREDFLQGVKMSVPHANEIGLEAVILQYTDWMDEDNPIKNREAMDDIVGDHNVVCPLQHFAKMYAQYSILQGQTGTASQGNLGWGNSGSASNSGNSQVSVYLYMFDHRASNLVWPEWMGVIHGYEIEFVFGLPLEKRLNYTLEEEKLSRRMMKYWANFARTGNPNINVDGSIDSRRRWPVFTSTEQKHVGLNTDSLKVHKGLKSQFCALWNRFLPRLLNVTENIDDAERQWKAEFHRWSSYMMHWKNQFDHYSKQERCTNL
Chain of Acetylcholinesterase (Electrophorus electricus) (O42275 24-633 limits assumed): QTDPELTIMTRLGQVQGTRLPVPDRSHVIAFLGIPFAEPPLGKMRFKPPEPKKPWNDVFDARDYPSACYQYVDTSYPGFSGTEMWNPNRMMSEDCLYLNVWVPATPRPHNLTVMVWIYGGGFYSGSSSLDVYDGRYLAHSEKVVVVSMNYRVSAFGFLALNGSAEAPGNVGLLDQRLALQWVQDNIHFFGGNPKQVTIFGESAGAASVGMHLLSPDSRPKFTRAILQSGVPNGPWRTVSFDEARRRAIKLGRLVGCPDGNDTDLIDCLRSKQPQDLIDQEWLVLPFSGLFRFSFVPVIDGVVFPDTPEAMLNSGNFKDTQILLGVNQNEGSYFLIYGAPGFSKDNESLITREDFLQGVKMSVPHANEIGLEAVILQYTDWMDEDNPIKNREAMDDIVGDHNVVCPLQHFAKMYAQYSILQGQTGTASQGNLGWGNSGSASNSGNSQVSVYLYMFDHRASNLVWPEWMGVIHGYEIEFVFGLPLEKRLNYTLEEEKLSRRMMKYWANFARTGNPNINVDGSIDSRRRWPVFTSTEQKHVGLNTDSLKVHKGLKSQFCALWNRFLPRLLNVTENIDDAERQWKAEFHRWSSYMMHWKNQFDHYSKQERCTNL
Chain of Cholinesterase (P81908 whole entry): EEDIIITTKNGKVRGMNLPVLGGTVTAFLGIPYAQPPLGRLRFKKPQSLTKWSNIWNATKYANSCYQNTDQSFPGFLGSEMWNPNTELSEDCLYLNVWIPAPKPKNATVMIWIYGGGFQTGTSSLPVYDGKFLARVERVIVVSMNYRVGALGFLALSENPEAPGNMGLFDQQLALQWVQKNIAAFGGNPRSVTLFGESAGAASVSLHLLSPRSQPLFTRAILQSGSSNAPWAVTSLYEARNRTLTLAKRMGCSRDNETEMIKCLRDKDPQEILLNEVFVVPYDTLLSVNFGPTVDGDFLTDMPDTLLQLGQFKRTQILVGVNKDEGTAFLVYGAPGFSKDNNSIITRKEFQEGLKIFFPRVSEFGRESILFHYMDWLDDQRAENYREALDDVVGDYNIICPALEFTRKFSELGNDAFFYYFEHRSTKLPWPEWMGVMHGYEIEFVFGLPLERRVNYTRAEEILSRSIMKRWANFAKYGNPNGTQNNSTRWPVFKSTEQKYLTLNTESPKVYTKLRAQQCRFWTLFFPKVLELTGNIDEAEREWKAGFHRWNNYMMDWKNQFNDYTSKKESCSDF
Description for in vitro: Permeability of the compound at 30 to 50 uM at pH 7.4 by PAMPA-BBB assay

For `O=c1c2ccccc2nc2n1CCC2` [DEOXYVASICINONE], the Activity result in series [1] and in [2] was “Non-Toxic” each time. Inhibition against Acetylcholinesterase [3] was half-maximal at 82.5 µM (IC50).
Turning to `O=C(CNS(=O)(=O)c1ccccc1C(F)(F)F)Nc1ccc2c(=O)n3c(nc2c1)CCC3`, the Activity entry in [4] is “Non-Toxic”; with BV-2 [5] (time 25.0 hrs) it was “Dose-Dependent Effect”; in the series on PC-12 [6] it was “Dose-Dependent Effect”; in [7], “Non-Toxic”; in the series with BV-2 [10] it was “Non-Toxic”; in series [11], “Non-Toxic”. In addition, the Activity entry in series [1] was “Non-Toxic”; in the series with BV-2 [13] (time 25.0 hrs), “Dose-Dependent Effect”; in the series on BV-2 [16] (time 25.0 hrs), “Dose-Dependent Effect”; in series [17] it was “Non-Toxic”; in series [18] it was “Non-Toxic”; in [2], “Non-Toxic”. Moreover, the Activity result in the series with BV-2 [22] was “Dose-Dependent Effect”; in the series on PC-12 [23], “Dose-Dependent Effect”; in [24], “Non-Toxic”; in the series with PC-12 [29], “Non-Toxic”; in the series on BV-2 [30] it was “Dose-Dependent Effect”. In addition, the IC50 – broadly, the concentration that inhibits the measured activity by half – in the series with BV-2 [5] is 3.34 µM; against Acetylcholinesterase [9], 0.24 µM; with BV-2 [13] it was 8.62 µM; in the series on BV-2 [16] it was 1.69 µM; on Cholinesterase it was greater than 50 µM. Besides, the outcome (with Mus musculus [8]; in the series on Mus musculus [14]; in series [15]; in series [19]; in the series with Mus musculus [21]; with Mus musculus [25]) was Active. Further, the result (in series [26]; in the series with Mus musculus [27]) was Active. The outcome in the series with Mus musculus [12] was inactive. Besides, the Ki (usually the equilibrium dissociation constant of an inhibitor or competing ligand from its target) on Acetylcholinesterase [20] worked out at 0.24 µM. For the same compound, in the series “in vitro”, the Papp (commonly the rate of passage across a membrane or cell layer, normalised by area and donor concentration) at 50 µM was 10.5 ×10⁻⁶ cm/s. In addition, the inhibition result in series [28] is “Dose-Dependent Effect”.
